Assay results: article PMC12454493, “Insight on novel sulfamoylphenyl pyrazole derivatives as anticancer carbonic anhydrase inhibitors” (Molecular Diversity, 2024)
Where “and” joins values, the source holds several entries; their conditions need not be identical. Identical values can stand only once.

How the values were obtained:
hCA XII = hCA XII (Homo sapiens, UniProt O43570); test: CA inhibitory activity, spectrophotometric p-NPA assay; type: biochemical
TK-10 = test: NCI-60 one-dose SRB screen (Renal Cancer); type: cell-based; conditions: Homo sapiens, single dose 10 µM, 48 h, read-out: Growth inhibition percent (GI %)
UO-31 = test: NCI-60 one-dose SRB screen (Renal Cancer); type: cell-based; conditions: Homo sapiens, single dose 10 µM, 48 h, read-out: Growth inhibition percent (GI %)
CAKI-1 = test: NCI-60 one-dose SRB screen (Renal Cancer); type: cell-based; conditions: Homo sapiens, single dose 10 µM, 48 h, read-out: Growth inhibition percent (GI %)
ACHN = test: NCI-60 one-dose SRB screen (Renal Cancer); type: cell-based; conditions: Homo sapiens, single dose 10 µM, 48 h, read-out: Growth inhibition percent (GI %)
RXF 393 = test: NCI-60 one-dose SRB screen (Renal Cancer); type: cell-based; conditions: Homo sapiens, single dose 10 µM, 48 h, read-out: Growth inhibition percent (GI %)
786-0 = test: NCI-60 one-dose SRB screen (Renal Cancer); type: cell-based; conditions: Homo sapiens, single dose 10 µM, 48 h, read-out: Growth inhibition percent (GI %)
A498 = test: NCI-60 one-dose SRB screen (Renal Cancer); type: cell-based; conditions: Homo sapiens, single dose 10 µM, 48 h, read-out: Growth inhibition percent (GI %)
hCA IX = hCA IX (Homo sapiens, UniProt Q16790); test: CA inhibitory activity, spectrophotometric p-NPA assay; type: biochemical
SNB-75 = test: NCI-60 one-dose SRB screen (CNS Cancer); type: cell-based; conditions: Homo sapiens, single dose 10 µM, 48 h, read-out: Growth inhibition percent (GI %)
SF-295 = test: NCI-60 one-dose SRB screen (CNS Cancer); type: cell-based; conditions: Homo sapiens, single dose 10 µM, 48 h, read-out: Growth inhibition percent (GI %)
SF-268 = test: NCI-60 one-dose SRB screen (CNS Cancer); type: cell-based; conditions: Homo sapiens, single dose 10 µM, 48 h, read-out: Growth inhibition percent (GI %)
SNB-19 = test: NCI-60 one-dose SRB screen (CNS Cancer); type: cell-based; conditions: Homo sapiens, single dose 10 µM, 48 h, read-out: Growth inhibition percent (GI %)
U251 = test: NCI-60 one-dose SRB screen (CNS Cancer); type: cell-based; conditions: Homo sapiens, U-251, single dose 10 µM, 48 h, read-out: Growth inhibition percent (GI %)
SF-539 = test: NCI-60 one-dose SRB screen (CNS Cancer); type: cell-based; conditions: Homo sapiens, single dose 10 µM, 48 h, read-out: Growth inhibition percent (GI %)
K-562 = test: NCI-60 one-dose SRB screen (Leukemia); type: cell-based; conditions: Homo sapiens, K562, single dose 10 µM, 48 h, read-out: Growth inhibition percent (GI %)
RPMI-8226 = test: NCI-60 one-dose SRB screen (Leukemia); type: cell-based; conditions: Homo sapiens, single dose 10 µM, 48 h, read-out: Growth inhibition percent (GI %)
MOLT-4 = test: NCI-60 one-dose SRB screen (Leukemia); type: cell-based; conditions: Homo sapiens, single dose 10 µM, 48 h, read-out: Growth inhibition percent (GI %)
SR = test: NCI-60 one-dose SRB screen (Leukemia); type: cell-based; conditions: Homo sapiens, single dose 10 µM, 48 h, read-out: Growth inhibition percent (GI %)
CCRF-CEM = test: NCI-60 one-dose SRB screen (Leukemia); type: cell-based; conditions: Homo sapiens, single dose 10 µM, 48 h, read-out: Growth inhibition percent (GI %)
HL-60(TB) = test: NCI-60 one-dose SRB screen (Leukemia); type: cell-based; conditions: Homo sapiens, single dose 10 µM, 48 h, read-out: Growth inhibition percent (GI %)
NCI-H522 = test: NCI-60 one-dose SRB screen (Non-Small Cell Lung Cancer); type: cell-based; conditions: Homo sapiens, single dose 10 µM, 48 h, read-out: Growth inhibition percent (GI %)
HOP-62 = test: as above; type: cell-based; conditions: Homo sapiens, single dose 10 µM, 48 h, read-out: Growth inhibition percent (GI %)
NCI-H23 = test: as above; type: cell-based; conditions: Homo sapiens, single dose 10 µM, 48 h, read-out: Growth inhibition percent (GI %)
EKVX = test: as above; type: cell-based; conditions: Homo sapiens, single dose 10 µM, 48 h, read-out: Growth inhibition percent (GI %)
NCI-H226 = test: as above; type: cell-based; conditions: Homo sapiens, single dose 10 µM, 48 h, read-out: Growth inhibition percent (GI %)
NCI-H460 = test: as above; type: cell-based; conditions: Homo sapiens, single dose 10 µM, 48 h, read-out: Growth inhibition percent (GI %)
NCI-H322M = test: as above; type: cell-based; conditions: Homo sapiens, single dose 10 µM, 48 h, read-out: Growth inhibition percent (GI %)
HOP-92 = test: as above; type: cell-based; conditions: Homo sapiens, single dose 10 µM, 48 h, read-out: Growth inhibition percent (GI %)
A549/ATCC = test: as above; type: cell-based; conditions: Homo sapiens, single dose 10 µM, 48 h, read-out: Growth inhibition percent (GI %)
COLO 205 = test: NCI-60 one-dose SRB screen (Colon Cancer); type: cell-based; conditions: Homo sapiens, single dose 10 µM, 48 h, read-out: Growth inhibition percent (GI %)
KM12 = test: NCI-60 one-dose SRB screen (Colon Cancer); type: cell-based; conditions: Homo sapiens, single dose 10 µM, 48 h, read-out: Growth inhibition percent (GI %)
HCC-2998 = test: NCI-60 one-dose SRB screen (Colon Cancer); type: cell-based; conditions: Homo sapiens, single dose 10 µM, 48 h, read-out: Growth inhibition percent (GI %)
HCT-15 = test: NCI-60 one-dose SRB screen (Colon Cancer); type: cell-based; conditions: Homo sapiens, single dose 10 µM, 48 h, read-out: Growth inhibition percent (GI %)
HT29 = test: NCI-60 one-dose SRB screen (Colon Cancer); type: cell-based; conditions: Homo sapiens, HT-29, single dose 10 µM, 48 h, read-out: Growth inhibition percent (GI %)
HCT-116 = test: NCI-60 one-dose SRB screen (Colon Cancer); type: cell-based; conditions: Homo sapiens, single dose 10 µM, 48 h, read-out: Growth inhibition percent (GI %)
SW-620 = test: NCI-60 one-dose SRB screen (Colon Cancer); type: cell-based; conditions: Homo sapiens, single dose 10 µM, 48 h, read-out: Growth inhibition percent (GI %)
SK-MEL-5 = test: NCI-60 one-dose SRB screen (Melanoma); type: cell-based; conditions: Homo sapiens, single dose 10 µM, 48 h, read-out: Growth inhibition percent (GI %)
UACC-62 = test: NCI-60 one-dose SRB screen (Melanoma); type: cell-based; conditions: Homo sapiens, single dose 10 µM, 48 h, read-out: Growth inhibition percent (GI %)
MALME-3M = test: NCI-60 one-dose SRB screen (Melanoma); type: cell-based; conditions: Homo sapiens, single dose 10 µM, 48 h, read-out: Growth inhibition percent (GI %)
UACC-257 = test: NCI-60 one-dose SRB screen (Melanoma); type: cell-based; conditions: Homo sapiens, single dose 10 µM, 48 h, read-out: Growth inhibition percent (GI %)
SK-MEL-2 = test: NCI-60 one-dose SRB screen (Melanoma); type: cell-based; conditions: Homo sapiens, single dose 10 µM, 48 h, read-out: Growth inhibition percent (GI %)
M14 = test: NCI-60 one-dose SRB screen (Melanoma); type: cell-based; conditions: Homo sapiens, single dose 10 µM, 48 h, read-out: Growth inhibition percent (GI %)
SK-MEL-28 = test: NCI-60 one-dose SRB screen (Melanoma); type: cell-based; conditions: Homo sapiens, single dose 10 µM, 48 h, read-out: Growth inhibition percent (GI %)
MDA-MB-435 = test: NCI-60 one-dose SRB screen (Melanoma); type: cell-based; conditions: Homo sapiens, single dose 10 µM, 48 h, read-out: Growth inhibition percent (GI %)

hCA XII, sequence (O43570 25-354): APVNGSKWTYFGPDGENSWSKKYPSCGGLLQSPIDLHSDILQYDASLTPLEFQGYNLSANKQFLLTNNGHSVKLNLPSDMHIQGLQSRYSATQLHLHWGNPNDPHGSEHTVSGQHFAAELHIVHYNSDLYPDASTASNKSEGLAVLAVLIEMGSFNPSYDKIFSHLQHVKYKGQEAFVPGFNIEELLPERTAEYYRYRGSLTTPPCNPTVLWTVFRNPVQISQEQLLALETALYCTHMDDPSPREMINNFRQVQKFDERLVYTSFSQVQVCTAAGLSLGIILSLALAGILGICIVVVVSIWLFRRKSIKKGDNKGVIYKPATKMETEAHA

Compound: CS(=O)(=O)c1ccc(-c2nn(-c3ccc(S(N)(=O)=O)cc3)cc2C(=O)OCC(=O)Nc2ccc(S(N)(=O)=O)cc2)cc1 [Compound 4e, 2-Oxo-2-[(4-sulfamoylphenyl)amino] ethyl 3-(4-(methylsulfonyl)phenyl)-1-(4-sulfamoylphenyl)-1H-pyrazole-4-carboxylate]
- Ki (hCA XII): 81 nM
- IC50 (hCA XII; p-NPA substrate, pH 7.5, 25 °C, triplicate, read-out: IC50 (µM) ± SD hCA XII): 0.08 µM and 0.081 µM
- inhibition at 10 µM (TK-10): < 5%
- inhibition at 10 µM (UO-31): 8.95%
- inhibition at 10 µM (CAKI-1): 8.93%
- inhibition at 10 µM (ACHN): < 5%
- inhibition at 10 µM (RXF 393): < 5%
- inhibition at 10 µM (786-0): < 5%
- inhibition at 10 µM (A498): < 5%
- melting point: 132 to 135 °C
- Ki (hCA IX): 72 nM
- IC50 (hCA IX; p-NPA substrate, pH 7.5, 25 °C, triplicate, read-out: IC50 (µM) ± SD hCA IX): 0.07 µM and 0.072 µM
- inhibition at 10 µM (SNB-75): < 5%
- inhibition at 10 µM (SF-295): < 5%
- inhibition at 10 µM (SF-268): < 5%
- inhibition at 10 µM (SNB-19): < 5%
- inhibition at 10 µM (U251): < 5%
- inhibition at 10 µM (SF-539): < 5%
- inhibition at 10 µM (K-562): < 5%
- inhibition at 10 µM (RPMI-8226): < 5%
- inhibition at 10 µM (MOLT-4): < 5%
- inhibition at 10 µM (SR): < 5%
- inhibition at 10 µM (CCRF-CEM): < 5%
- inhibition at 10 µM (HL-60(TB)): < 5%
- inhibition at 10 µM (NCI-H522): 23.1%
- inhibition at 10 µM (HOP-62): < 5%
- inhibition at 10 µM (NCI-H23): < 5%
- inhibition at 10 µM (EKVX): < 5%
- inhibition at 10 µM (NCI-H226): < 5%
- inhibition at 10 µM (NCI-H460): < 5%
- inhibition at 10 µM (NCI-H322M): < 5%
- inhibition at 10 µM (HOP-92): < 5%
- inhibition at 10 µM (A549/ATCC): 6.92%
- inhibition at 10 µM (COLO 205): < 5%
- inhibition at 10 µM (KM12): < 5%
- inhibition at 10 µM (HCC-2998): < 5%
- inhibition at 10 µM (HCT-15): < 5%
- inhibition at 10 µM (HT29): 6.67%
- inhibition at 10 µM (HCT-116): < 5%
- inhibition at 10 µM (SW-620): < 5%
- inhibition at 10 µM (SK-MEL-5): < 5%
- inhibition at 10 µM (UACC-62): < 5%
- inhibition at 10 µM (MALME-3M): < 5%
- inhibition at 10 µM (UACC-257): 6.07%
- inhibition at 10 µM (SK-MEL-2): < 5%
- inhibition at 10 µM (M14): < 5%
- inhibition at 10 µM (SK-MEL-28): < 5%
- inhibition at 10 µM (MDA-MB-435): < 5%
